Test results from ChEMBL document CHEMBL5715945 (Cancer Biol Ther, 2010).
The source made the active and inactive calls. The rule behind the calls is not given here.

What was measured:
[1] = molecular target: Focal adhesion kinase 1 (Mus musculus) (UniProt P34152); experiment: Inhibition of FAK phosphorylation at Tyr397 residue in mouse ID8 cells harbouring mCherry red fluorescent protein at 0.1 to 1 uM incubated for 1 hr by immunoblotting analysis; assay type: cell-based; details: dose 0.1-1 µM
4T1 [2] = experiment: Inhibition of cell migration in mouse 4T1 cells assessed as wound closure at 1 uM incubated for 22 hrs by wound healing assay (reference value: 89%); assay type: functional; design: scale not given: the % may be the effect or the level left
4T1 [3] = experiment: Induction of cell cycle arrest in mouse 4T1 adherent cells assessed as accumulation at S phase at 1 uM measured after 72 hrs by PI staining based flow cytometry analysis (reference value: 15.3%); assay type: functional
4T1 [4] = experiment: Induction of cell cycle arrest in mouse 4T1 adherent cells assessed as accumulation at G2/M phase at 1 uM measured after 72 hrs by PI staining based flow cytometry analysis (reference value: 7.9%); assay type: functional
4T1 [5] = experiment: Induction of cell cycle arrest in mouse 4T1 adherent cells assessed as accumulation at S phase at 1 uM measured after 72 hrs by PI staining based flow cytometry analysis (reference value: 12.5%); assay type: functional
4T1 [6] = experiment: Induction of cell cycle arrest in mouse 4T1 cells assessed as accumulation at sub-diploid cells at 1 uM measured after 72 hrs by PI staining based flow cytometry analysis; assay type: functional
[7] = molecular target: Focal adhesion kinase 1 (Mus musculus) (UniProt P34152); experiment: Inhibition of FAK phosphorylation at Y397 residue in mouse 4T1 adherent cells at 0.1 uM incubated for 24 hrs by immunoblotting analysis; assay type: cell-based
4T1 [8] = experiment: Induction of apoptosis in mouse 4T1 suspended cells at 0.1 to 0.4 uM incubated for 24 hrs by annexin V staining based flow cytometry analysis; assay type: functional; details: dose 0.1-0.4 µM
4T1 [9] = experiment: Antiproliferative activity against mouse 4T1 cells cultured as 3D spheroids assessed as maximal effect at 0.2 uM measured after 72 hrs by phase contrast microscopic analysis; assay type: functional, cell-based
[10] = molecular target: Focal adhesion kinase 1 (Mus musculus) (UniProt P34152); experiment: Inhibition of FAK phosphorylation at Y397 residue in mouse 4T1 adherent cells cultured as 3D spheroids at 0.1 to 1 uM incubated for 24 hrs by immunoblotting analysis; assay type: cell-based; details: dose 0.1-1 µM
4T1 [11] = experiment: Effect on Src phosphorylation at Y416 residue in mouse 4T1 cultured as 3D spheroids at 0.1 to 1 uM incubated for 24 hrs by immunoblotting analysis; assay type: functional, cell-based; details: dose 0.1-1 µM
4T1 [12] = experiment: Effect on p130Cas phosphorylation in mouse 4T1 cultured as […] at 0.1 to 1 uM incubated for 24 hrs by immunoblotting analysis; assay type: functional, cell-based; details: dose 0.1-1 µM
4T1 [13] = experiment: Inhibition of colony formation in mouse 4T1 cells assessed as reduction in cell number measured after 10 days by phase contrast microscopy analysis; assay type: functional, cell-based; details: dose 0.4-1 µM, time 10.0 day
4T1 [14] = experiment: Inhibition of colony formation in mouse 4T1 cells assessed as reduction in cell size measured after 10 days by phase contrast microscopy analysis; assay type: functional, cell-based; details: dose 0.4-1 µM, time 10.0 day
4T1 [15] = experiment: Antitumor activity against mouse 4T1 cells harbouring mCherry red fluorescent protein implanted in BALB/c mouse assessed as fold reduction in tumor weight at 100 mg/kg, sc bid measured after 5 days; assay type: functional; details: time 5 day
[16] = molecular target: Insulin receptor (Homo sapiens) (UniProt P06213); experiment: Inhibition of IR (unknown origin) at 1 uM relative to control; values are per cent of control
[17] = molecular target: Tyrosine-protein kinase ABL1 (Homo sapiens) (UniProt P00519); experiment: Inhibition of Abl (unknown origin) at 1 uM relative to control; values are per cent of control
[18] = molecular target: Tyrosine-protein kinase Fyn (Homo sapiens) (UniProt P06241); experiment: Inhibition of Fyn (unknown origin) at 1 uM relative to control; values are per cent of control
[19] = molecular target: Serine/threonine-protein kinase Nek6 (Homo sapiens) (UniProt Q9HC98); experiment: Inhibition of NEK6 (unknown origin) at 1 uM relative to control; values are per cent of control
[20] = molecular target: Tyrosine-protein kinase Fyn (Homo sapiens) (UniProt P06241); experiment: Inhibition of Fyn (unknown origin) at 0.1 uM relative to control; values are per cent of control
[21] = molecular target: Proto-oncogene tyrosine-protein kinase Src (Homo sapiens) (UniProt P12931); experiment: Inhibition of c-SRC (unknown origin) at 1 uM relative to control; values are per cent of control
[22] = molecular target: Death-associated protein kinase 1 (Homo sapiens) (UniProt P53355); experiment: Inhibition of DAPK1 (unknown origin) at 1 uM relative to control; values are per cent of control
[23] = molecular target: Ephrin type-A receptor 1 (Homo sapiens) (UniProt P21709); experiment: Inhibition of EphA1 (unknown origin) at 1 uM relative to control; values are per cent of control
[24] = molecular target: Fibroblast growth factor receptor 1 (Homo sapiens) (UniProt P11362); experiment: Inhibition of FGFR1 (unknown origin) at 1 uM relative to control; values are per cent of control
[25] = molecular target: Serine/threonine-protein kinase Nek6 (Homo sapiens) (UniProt Q9HC98); experiment: Inhibition of NEK6 (unknown origin) at 0.1 uM relative to control; values are per cent of control
[26] = molecular target: Dual specificity mitogen-activated protein kinase kinase 1 (Homo sapiens) (UniProt Q02750); experiment: Inhibition of MEK1 (unknown origin) at 0.1 uM relative to control; values are per cent of control
[27] = molecular target: Serine/threonine-protein kinase Chk1 (Homo sapiens) (UniProt O14757); experiment: Inhibition of CHK1 (unknown origin) at 0.1 uM relative to control; values are per cent of control
[28] = molecular target: Activated CDC42 kinase 1 (Homo sapiens) (UniProt Q07912); experiment: Inhibition of ACK1 (unknown origin) at 0.1 uM relative to control; values are per cent of control
[29] = molecular target: Angiopoietin-1 receptor (Homo sapiens) (UniProt Q02763); experiment: Inhibition of Tie2 (unknown origin) at 0.1 uM relative to control; values are per cent of control
[30] = molecular target: RAF proto-oncogene serine/threonine-protein kinase (Homo sapiens) (UniProt P04049); experiment: Inhibition of c-RAF (unknown origin) at 0.1 uM relative to control; values are per cent of control
[31] = molecular target: Casein kinase I isoform gamma-1 (Homo sapiens) (UniProt Q9HCP0); experiment: Inhibition of CK1g1 (unknown origin) at 0.1 uM relative to control; values are per cent of control
[32] = molecular target: Tyrosine-protein kinase ZAP-70 (Homo sapiens) (UniProt P43403); experiment: Inhibition of ZAP-70 (unknown origin) at 0.1 uM relative to control; values are per cent of control

Focal adhesion kinase 1 (Mus musculus), sequence (P34152 whole entry): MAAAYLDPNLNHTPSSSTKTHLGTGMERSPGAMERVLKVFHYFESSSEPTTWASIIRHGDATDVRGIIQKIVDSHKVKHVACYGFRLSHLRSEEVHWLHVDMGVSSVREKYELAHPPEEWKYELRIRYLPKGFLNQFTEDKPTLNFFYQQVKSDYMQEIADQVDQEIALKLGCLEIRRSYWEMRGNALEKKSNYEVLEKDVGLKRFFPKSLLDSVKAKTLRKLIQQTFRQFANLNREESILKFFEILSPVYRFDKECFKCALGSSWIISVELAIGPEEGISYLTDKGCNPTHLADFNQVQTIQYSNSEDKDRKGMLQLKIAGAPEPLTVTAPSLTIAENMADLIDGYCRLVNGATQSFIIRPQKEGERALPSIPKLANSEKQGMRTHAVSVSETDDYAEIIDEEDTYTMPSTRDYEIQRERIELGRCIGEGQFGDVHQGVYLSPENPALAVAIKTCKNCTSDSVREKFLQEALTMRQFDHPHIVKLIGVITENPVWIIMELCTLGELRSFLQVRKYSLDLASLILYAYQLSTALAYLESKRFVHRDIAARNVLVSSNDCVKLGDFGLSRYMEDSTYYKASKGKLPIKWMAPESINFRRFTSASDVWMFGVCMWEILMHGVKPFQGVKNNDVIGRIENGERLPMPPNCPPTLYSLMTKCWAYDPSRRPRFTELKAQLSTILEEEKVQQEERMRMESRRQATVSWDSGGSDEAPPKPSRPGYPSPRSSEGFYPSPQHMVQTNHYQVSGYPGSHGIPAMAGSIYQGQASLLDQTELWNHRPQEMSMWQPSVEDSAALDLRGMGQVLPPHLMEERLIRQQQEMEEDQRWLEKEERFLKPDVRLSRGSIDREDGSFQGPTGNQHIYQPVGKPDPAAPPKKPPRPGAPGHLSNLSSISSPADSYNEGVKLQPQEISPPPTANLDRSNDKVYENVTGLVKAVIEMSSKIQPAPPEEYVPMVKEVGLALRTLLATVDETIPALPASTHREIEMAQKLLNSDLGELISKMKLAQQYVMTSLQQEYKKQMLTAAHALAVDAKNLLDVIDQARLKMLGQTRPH
Serine/threonine-protein kinase Nek6 (Homo sapiens), sequence (Q9HC98 whole entry): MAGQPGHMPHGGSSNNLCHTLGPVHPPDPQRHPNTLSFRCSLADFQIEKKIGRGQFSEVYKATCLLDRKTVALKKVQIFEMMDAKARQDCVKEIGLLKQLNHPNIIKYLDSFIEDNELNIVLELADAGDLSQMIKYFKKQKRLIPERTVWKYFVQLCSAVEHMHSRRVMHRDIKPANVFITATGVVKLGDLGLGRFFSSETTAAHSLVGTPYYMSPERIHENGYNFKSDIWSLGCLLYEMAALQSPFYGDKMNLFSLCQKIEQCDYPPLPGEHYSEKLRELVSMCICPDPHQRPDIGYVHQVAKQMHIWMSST
Tyrosine-protein kinase Fyn (Homo sapiens), sequence (P06241 2-537 limits assumed): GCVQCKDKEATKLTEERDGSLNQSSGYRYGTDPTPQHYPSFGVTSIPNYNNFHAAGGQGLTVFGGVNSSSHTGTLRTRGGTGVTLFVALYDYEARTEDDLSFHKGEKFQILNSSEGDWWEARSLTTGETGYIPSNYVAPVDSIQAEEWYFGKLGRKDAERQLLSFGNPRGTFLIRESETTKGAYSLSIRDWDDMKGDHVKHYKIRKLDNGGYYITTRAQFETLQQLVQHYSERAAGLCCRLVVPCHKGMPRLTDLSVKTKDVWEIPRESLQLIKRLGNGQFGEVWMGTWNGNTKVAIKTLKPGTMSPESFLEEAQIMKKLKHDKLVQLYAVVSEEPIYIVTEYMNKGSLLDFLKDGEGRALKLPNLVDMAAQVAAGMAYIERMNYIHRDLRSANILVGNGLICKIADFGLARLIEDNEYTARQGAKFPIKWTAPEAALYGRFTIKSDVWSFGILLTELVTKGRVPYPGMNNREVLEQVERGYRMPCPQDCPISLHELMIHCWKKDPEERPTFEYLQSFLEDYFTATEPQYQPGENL
Insulin receptor (Homo sapiens), sequence (P06213 28-758 limits assumed): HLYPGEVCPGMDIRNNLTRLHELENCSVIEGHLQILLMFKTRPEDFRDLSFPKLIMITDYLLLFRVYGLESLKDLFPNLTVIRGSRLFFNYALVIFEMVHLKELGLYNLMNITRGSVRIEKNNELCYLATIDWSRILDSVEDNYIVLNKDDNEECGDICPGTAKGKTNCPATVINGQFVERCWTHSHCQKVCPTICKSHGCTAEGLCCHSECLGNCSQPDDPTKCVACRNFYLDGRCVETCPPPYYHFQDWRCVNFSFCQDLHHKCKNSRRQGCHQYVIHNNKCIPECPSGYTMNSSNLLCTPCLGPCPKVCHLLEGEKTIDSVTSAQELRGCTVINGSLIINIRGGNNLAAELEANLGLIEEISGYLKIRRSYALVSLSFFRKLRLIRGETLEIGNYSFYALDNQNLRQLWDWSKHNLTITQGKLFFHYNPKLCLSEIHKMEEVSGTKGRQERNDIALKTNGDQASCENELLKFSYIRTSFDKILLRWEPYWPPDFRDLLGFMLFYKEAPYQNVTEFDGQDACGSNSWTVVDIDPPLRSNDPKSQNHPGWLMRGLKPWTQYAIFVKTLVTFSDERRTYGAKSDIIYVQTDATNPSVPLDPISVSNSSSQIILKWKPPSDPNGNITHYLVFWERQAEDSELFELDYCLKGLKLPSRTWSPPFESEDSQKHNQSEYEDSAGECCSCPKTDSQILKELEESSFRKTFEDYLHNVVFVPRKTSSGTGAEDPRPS
Insulin receptor (Homo sapiens), sequence (P06213 763-1382 limits assumed): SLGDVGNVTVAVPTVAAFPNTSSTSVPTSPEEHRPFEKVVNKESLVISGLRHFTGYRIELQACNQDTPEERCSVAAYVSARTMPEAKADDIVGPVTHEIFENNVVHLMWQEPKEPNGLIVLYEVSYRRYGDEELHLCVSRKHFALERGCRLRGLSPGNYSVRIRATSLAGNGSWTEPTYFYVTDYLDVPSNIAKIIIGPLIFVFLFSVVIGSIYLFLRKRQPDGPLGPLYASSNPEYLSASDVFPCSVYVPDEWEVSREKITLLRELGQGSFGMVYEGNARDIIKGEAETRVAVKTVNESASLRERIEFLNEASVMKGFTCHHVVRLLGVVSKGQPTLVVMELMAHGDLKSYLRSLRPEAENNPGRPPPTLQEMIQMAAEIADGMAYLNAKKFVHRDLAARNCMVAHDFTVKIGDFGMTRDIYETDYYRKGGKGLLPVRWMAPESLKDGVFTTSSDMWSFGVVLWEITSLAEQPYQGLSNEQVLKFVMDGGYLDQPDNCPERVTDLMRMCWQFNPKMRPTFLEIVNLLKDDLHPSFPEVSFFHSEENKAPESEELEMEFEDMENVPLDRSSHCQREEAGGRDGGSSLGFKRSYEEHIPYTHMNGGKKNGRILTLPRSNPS
Angiopoietin-1 receptor (Homo sapiens), sequence (Q02763 whole entry): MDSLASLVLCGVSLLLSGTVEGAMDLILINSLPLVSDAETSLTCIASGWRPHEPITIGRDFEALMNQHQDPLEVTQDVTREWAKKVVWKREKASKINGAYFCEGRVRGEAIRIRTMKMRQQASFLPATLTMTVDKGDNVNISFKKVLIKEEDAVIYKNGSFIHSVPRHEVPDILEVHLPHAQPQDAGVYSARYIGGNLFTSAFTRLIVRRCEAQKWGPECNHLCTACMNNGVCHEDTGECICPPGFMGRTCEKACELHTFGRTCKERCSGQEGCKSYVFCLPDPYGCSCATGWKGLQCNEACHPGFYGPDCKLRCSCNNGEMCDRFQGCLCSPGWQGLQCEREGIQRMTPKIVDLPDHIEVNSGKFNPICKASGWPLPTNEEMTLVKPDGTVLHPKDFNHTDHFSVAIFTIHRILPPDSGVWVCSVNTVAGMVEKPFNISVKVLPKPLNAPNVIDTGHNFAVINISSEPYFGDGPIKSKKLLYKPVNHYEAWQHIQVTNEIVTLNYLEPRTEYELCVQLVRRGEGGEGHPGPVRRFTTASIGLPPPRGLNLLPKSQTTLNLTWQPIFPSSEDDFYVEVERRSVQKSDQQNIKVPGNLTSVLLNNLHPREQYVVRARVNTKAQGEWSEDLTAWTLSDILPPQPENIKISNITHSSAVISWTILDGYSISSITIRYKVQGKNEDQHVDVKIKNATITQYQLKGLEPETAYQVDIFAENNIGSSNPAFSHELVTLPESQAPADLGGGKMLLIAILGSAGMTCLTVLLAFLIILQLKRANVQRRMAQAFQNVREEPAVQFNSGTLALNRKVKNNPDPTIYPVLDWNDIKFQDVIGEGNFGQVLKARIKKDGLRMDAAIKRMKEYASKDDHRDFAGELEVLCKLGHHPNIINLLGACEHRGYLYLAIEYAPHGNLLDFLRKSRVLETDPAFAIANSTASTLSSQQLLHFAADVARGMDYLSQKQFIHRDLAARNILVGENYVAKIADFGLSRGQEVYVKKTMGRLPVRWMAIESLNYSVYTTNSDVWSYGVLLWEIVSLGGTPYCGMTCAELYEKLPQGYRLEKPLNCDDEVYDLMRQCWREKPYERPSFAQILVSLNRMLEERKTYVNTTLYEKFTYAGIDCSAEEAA
Dual specificity mitogen-activated protein kinase kinase 1 (Homo sapiens), sequence (Q02750 whole entry): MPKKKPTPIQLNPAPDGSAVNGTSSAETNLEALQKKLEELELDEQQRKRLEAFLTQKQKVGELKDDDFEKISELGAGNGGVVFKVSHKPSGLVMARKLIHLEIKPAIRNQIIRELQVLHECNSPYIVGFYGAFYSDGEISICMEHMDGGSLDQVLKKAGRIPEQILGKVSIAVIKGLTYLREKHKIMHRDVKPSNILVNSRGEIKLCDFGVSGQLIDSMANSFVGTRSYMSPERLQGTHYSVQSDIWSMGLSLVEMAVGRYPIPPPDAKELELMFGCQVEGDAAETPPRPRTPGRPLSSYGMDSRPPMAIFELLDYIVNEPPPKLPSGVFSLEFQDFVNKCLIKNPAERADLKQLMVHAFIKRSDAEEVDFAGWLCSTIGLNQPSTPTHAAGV

In the case of `CNC(=O)c1ccccc1Nc1cc(Nc2ccc(N3CCOCC3)cc2OC)ncc1C(F)(F)F` [VS-4718], the inhibition [1] is reported as “Active”, the Activity (4T1 [2]) is reported as 40% and the Activity (4T1 [3]) is reported as 23.8%. For the same compound, the Activity (4T1 [4]) was 10.5%, the Activity (4T1 [5]) was 10% and the Activity (4T1 [6]) was “Active”. For the same compound, the inhibition [7] was “Active”, the Activity (4T1 [8]) was 50% and the Activity (4T1 [9]) was “Active”. For the same compound, the inhibition [10] was “Active”, the Activity (4T1 [11]) was “inactive” and the Activity (4T1 [12]) was “inactive”. The inhibition (4T1 [13]) was “Dose-Dependent Effect”, the inhibition (4T1 [14]) was “Dose-Dependent Effect” and the “fold change (FC)” value (4T1 [15]) was 2. It also gave a residual activity [16] of 40%, a residual activity [17] of 112% and a residual activity [18] of 78%. It also gave a residual activity [19] of 107%, a residual activity [20] of 99% and a residual activity [21] of 72%. It also gave a residual activity [22] of 97%, a residual activity [23] of 108% and a residual activity [24] of 97%. The residual activity [25] was 110%, the residual activity [26] was 79% and the residual activity [27] was 109%. For the same compound, the residual activity [28] was 56%, the residual activity [29] was 97% and the residual activity [30] was 142%. For the same compound, the residual activity [31] was 111% and the residual activity [32] was 70%.
